From ChEMBL document CHEMBL1133859, “Unprecedented sugar-dependent in vivo antitumor activity of carbohydrate-pendant cis-diamminedichloroplatinum(II) complexes” (Bioorg Med Chem Lett, 2001)

Test: Lethal dose in mice
Assay type: toxicity
Conditions: mouse, in vivo

With CISPLATIN the LD50 was 10 mg/kg.
